One may read the IC50 as the point on the concentration scale where inhibition reaches its midpoint.

The text below walks through data of patent publication US20260166039A1 (SCHRÖDINGER, INC., priority 2022, published 2026).

Like-named read-outs stand apart in the source and are kept apart here. Some results are limits rather than exact numbers.

The target in assay [1] is T1, Wee1 kinase domain (Homo sapiens, UniProt P30291).
T1 construct: Wee1 kinase domain was purchased from Carna (catalog #05-177); purchased Carna 05-177
Nature of the assay: Wee1 Kinase Biochemical Assay (ADP-Glo). The note with it: 15 uM ATP. The method, boiled down:
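Poly(Lys,Tyr 4:1) phosphorylation by the kinase domain is followed as ADP output (ADP-Glo) after 4 h at 25 °C, with ATP at 15 uM. Values are percent inhibition between vehicle and full-inhibition controls.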

Assay [2] relates to phosphorylation of Cdc2 Y15 (Wee1 substrate) in A427 cells. Put plainly: Phosphorylated Cdc2 MSD Electrochemiluminescence Assay. It is filed as cell-based. In short, it runs like this:
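A427 cells (RPMI 1640, 10% FBS) treated 20 h after plating with 3-fold serial compound dilutions, in duplicate, 37 °C, 5% CO2; total incubation 6 h. Lysate Cdc2 pY15 read by MSD electrochemiluminescence sandwich immunoassay; % remaining signal normalised to DMSO (high) and reference Wee1 inhibitor (low) controls.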

The mark [3] stands for this setting: class symbols, 1 nM Wee1 enzyme, 4 hours at 25° C.
The mark [4] stands for this setting: Homo sapiens, A-427, class symbols, read-out: A427 pCDC2 MSD IC50.

T1 sequence (P30291 299-569 limits assumed): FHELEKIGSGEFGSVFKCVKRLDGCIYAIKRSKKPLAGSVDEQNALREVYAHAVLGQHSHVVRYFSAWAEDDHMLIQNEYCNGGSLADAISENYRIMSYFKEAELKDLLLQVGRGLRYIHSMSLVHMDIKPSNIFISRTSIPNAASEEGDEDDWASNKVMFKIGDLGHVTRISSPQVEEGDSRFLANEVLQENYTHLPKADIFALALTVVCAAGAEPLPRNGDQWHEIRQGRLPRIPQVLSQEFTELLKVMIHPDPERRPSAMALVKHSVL

Regarding `CNCc1cccc(N2c3nc(Nc4ccc(N5CCCOCC5)cc4)ncc3[C@@]3(C)COC(C)(C)C[C@@H]23)n1` (single isomer, unassigned) [Example 18], the IC50 in assay [1] (Wee1 kinase domain, ADP-Glo) is less than 10 nM; in assay [2] (Homo sapiens, A-427, pCDC2 MSD), 100 to 1000 nM.
Turning to `CN1C[C@@H]2C[C@H]1CN2c1ccc(Nc2ncc3c(n2)N(c2cccc(C(C)(C)O)n2)[C@@H]2CC(C)(C)OC[C@]32C)cc1` (single isomer, unassigned) [Example 416], the IC50 is less than 10 nM in assay [1] (setting [3]) and 100 to 1000 nM in assay [2] (setting [4]).
On to `Cc1cc(Nc2ncc3c(n2)N(c2cccc(N4C(=O)OC[C@@H]4C)n2)[C@@H]2CC(C)(C)OC[C@]32C)ccc1O[C@H]1CCN(C)C1` (single isomer, unassigned) [Example 345], for which the half-maximal inhibitory concentration (IC50) is less than 10 nM in assay [1] (Wee1 kinase domain, ADP-Glo) and 100 to 1000 nM in assay [2] (Homo sapiens, A-427, pCDC2 MSD).
On the same counts, the results for `C[C@H]1COC(=O)N1c1cccc(N2c3nc(Nc4ccc(N5CCN(C)CC5)nn4)ncc3[C@@]3(C)COC(C)(C)C[C@@H]23)n1` [Example 249] are less than 10 nM and 100 to 1000 nM.
Consider `CN1[C@@H]2C[C@H]1CN(c1ccc(Nc3ncc4c(n3)N(c3cccc(N5CCOC5=O)n3)[C@@H]3CC(C)(C)OC[C@]43C)cc1)C2` [Example 700, 3-(6-((4bR,8aR)-4b,7,7-trimethyl-2-((4-((1R,5S)-6-methyl-3,6-diazabicyclo[3.1.1]heptan-3-yl)phenyl)amino)-4b,7,8,8a-tetrahydropyrano[3′,4′:4,5]pyrrolo[2,3-d]pyrimidin-9(5H)-yl)pyridin-2-yl)oxazolidin-2-one], for which the IC50 was less than 10 nM in assay [1] (setting [3]) and 100 to 1000 nM in assay [2] (setting [4]).
On the same counts, the results for `C[C@H]1CCC(=O)N1c1cccc(N2c3nc(Nc4ccc(N5CCN(C)CC5)cc4)ncc3[C@@]3(C)COC(C)(C)C[C@@H]23)n1` (single isomer, unassigned) [Example 583] are less than 10 nM and 100 to 1000 nM.
On to `CN1CC[C@@H](Oc2ccc(Nc3ncc4c(n3)N(c3cccc(N=S(C)(C)=O)n3)[C@@H]3CC(C)(C)OC[C@]43C)cc2)C1` (single isomer, unassigned) [Example 159], for which the half-inhibitory concentration (IC50) in assay [1] (Wee1 kinase domain, ADP-Glo) is less than 10 nM; in assay [2] (Homo sapiens, A-427, pCDC2 MSD) it was less than 100 nM.
On the same counts, the results for `CN1CC[C@H](Oc2ccc(Nc3ncc4c(n3)N(c3cccc(N=S(C)(C)=O)n3)[C@@H]3CC(C)(C)OC[C@]43C)cc2)C1` (single isomer, unassigned) [Example 157] are less than 10 nM and less than 100 nM.
As to `C[C@@H]1CN(c2ccc(Nc3ncc4c(n3)N(c3cccc(N=S(C)(C)=O)n3)[C@@H]3CC(C)(C)OC[C@]43C)cc2)CCN1C` (single isomer, unassigned) [Example 499], the concentration for half-maximal inhibition (IC50) in assay [1] (setting [3]) was less than 10 nM; in assay [2] (setting [4]), less than 100 nM.
For `[2H]C([2H])([2H])N1CCC(c2ccc(Nc3ncc4c(n3)N(c3cccc(N=S(C)(C)=O)n3)[C@@H]3CC(C)(C)OC[C@]43C)cc2)CC1` (single isomer, unassigned) [Example 162], the IC50 in assay [1] (Wee1 kinase domain, ADP-Glo) was less than 10 nM; in assay [2] (Homo sapiens, A-427, pCDC2 MSD), less than 100 nM.
On the same counts, the results for `C[C@H]1COC(=O)N1c1cccc(N2c3nc(Nc4ccc([C@@H]5CCN(C)C5)nc4)ncc3[C@@]3(C)COC(C)(C)C[C@@H]23)n1` (single isomer, unassigned) [Example 265] are less than 10 nM and less than 100 nM.
On the same counts, the results for `CC1(C)C[C@H]2N(c3cccc(N=S(C)(C)=O)n3)c3nc(Nc4ccn(C(F)F)c(=O)c4)ncc3[C@@]2(C)CO1` (single isomer, unassigned) [Example 374] are less than 10 nM and 100 to 1000 nM.
Turning to `CC1(C)C[C@H]2N(c3cccc(N=S(C)(C)=O)n3)c3nc(NC(=O)[C@H]4C[C@@H]4c4ccccc4)ncc3[C@@]2(C)CO1` (single isomer, unassigned) [Example 397], the half-inhibitory concentration (IC50) in assay [1] (Wee1 kinase domain, ADP-Glo) is less than 10 nM; in assay [2] (pCDC2 MSD) it was 100 to 1000 nM.
As to `CNCc1cccc(N2c3nc(Nc4ccc(N5C[C@H]6C[C@@H]5CO6)cc4)ncc3[C@@]3(C)COC(C)(C)C[C@@H]23)n1` (single isomer, unassigned) [Example 44], the IC50 was less than 10 nM in assay [1] (Wee1 kinase domain, ADP-Glo) and less than 100 nM in assay [2] (Homo sapiens, A-427, pCDC2 MSD).
In the case of `CC1(C)C[C@H]2N(c3cccc([C@@H]4CCCN4)n3)c3nc(Nc4ccc(N5CCOCC5)cc4)ncc3[C@@]2(C)CO1` (single isomer, unassigned) [Example 526], the 50% inhibitory concentration (IC50) in assay [1] (setting [3]) is less than 10 nM; in assay [2] (setting [4]) it was 100 to 1000 nM.
For `CN1CCC(c2cc(Nc3ncc4c(n3)N(c3cccc(N=S(C)(C)=O)n3)[C@@H]3CC(C)(C)OC[C@]43C)on2)CC1` (single isomer, unassigned) [Example 204], the IC50 in assay [1] (Wee1 kinase domain, ADP-Glo) was less than 10 nM; in assay [2] (Homo sapiens, A-427, pCDC2 MSD), 100 to 1000 nM.
The matching figures for `CNCc1cccc(N2c3nc(Nc4ccc(N5C(=O)CC[C@H]5C)cc4)ncc3[C@@]3(C)COC(C)(C)C[C@@H]23)n1` (single isomer, unassigned) [Example 30]: less than 10 nM and 100 to 1000 nM.
On the same counts, the results for `Cc1ncc(Nc2ncc3c(n2)N(c2cccc(N=S(C)(C)=O)n2)[C@@H]2CC(C)(C)OC[C@]32C)cn1` (single isomer, unassigned) [Example 373] are less than 10 nM and 100 to 1000 nM.
Consider `CN1CCN(c2ccc(Nc3ncc4c(n3)N(c3cccc(N5CCOC5=O)n3)[C@@H]3CC(C)(C)OC[C@]43C)cc2)CC1` (single isomer, unassigned) [Example 577], for which the IC50 was less than 10 nM in assay [1] (setting [3]) and less than 100 nM in assay [2] (setting [4]).
The matching figures for `CNCc1cccc(N2c3nc(Nc4ccc(N5CCN(C)CC5)c(C)c4)ncc3[C@@]3(C)COC(C)(C)C[C@@H]23)n1` (single isomer, unassigned) [Example 448]: less than 10 nM and 100 to 1000 nM.
With `CN1Cc2cc(Nc3ncc4c(n3)N(c3cccc(N=S(C)(C)=O)n3)[C@@H]3CC(C)(C)OC[C@]43C)cnc2C1` (single isomer, unassigned) [Example 188], the concentration for half-maximal inhibition (IC50) is less than 10 nM in assay [1] (Wee1 kinase domain, ADP-Glo) and less than 100 nM in assay [2] (Homo sapiens, A-427, pCDC2 MSD).
With `CN1CC(c2ccc(Nc3ncc4c(n3)N(c3cccc(N=S5(=O)CCCC5)n3)[C@@H]3CC(C)(C)OC[C@]43C)cc2)C1` (single isomer, unassigned) [Example 754], the IC50 is less than 10 nM in assay [1] (setting [3]) and less than 100 nM in assay [2] (setting [4]).
As to `CNCc1cccc(N2c3nc(Nc4ccc([C@@H]5CCC(=O)N5C)cc4)ncc3[C@@]3(C)COC(C)(C)C[C@@H]23)n1` (single isomer, unassigned) [Example 52], the IC50 was less than 10 nM in assay [1] (Wee1 kinase domain, ADP-Glo) and less than 100 nM in assay [2] (Homo sapiens, A-427, pCDC2 MSD).
Regarding `CNC(=O)c1ccc(Nc2ncc3c(n2)N(c2cccc(N=S(C)(C)=O)n2)[C@@H]2CC(C)(C)OC[C@]32C)cc1` (single isomer, unassigned) [Example 117], the IC50 in assay [1] (Wee1 kinase domain, ADP-Glo) is less than 10 nM; in assay [2] (Homo sapiens, A-427, pCDC2 MSD), less than 100 nM.
For the molecule `CN1CC[C@H](c2ccc(Nc3ncc4c(n3)N(c3cccc(N5CCCC5=O)n3)[C@@H]3CC(C)(C)OC[C@]43C)cc2)C1` [Example 634, 1-(6-((4bR,8aR)-4b,7,7-trimethyl-2-((4-((R)-1-methylpyrrolidin-3-yl)phenyl)amino)-4b,7,8,8a-tetrahydropyrano[3′,4′:4,5]pyrrolo[2,3-d]pyrimidin-9(5H)-yl)pyridin-2-yl)pyrrolidin-2-one], the IC50 in assay [1] (setting [3]) is less than 10 nM; in assay [2] (setting [4]) it was 100 to 1000 nM.
Take `CNCc1cccc(N2c3nc(Nc4ccn(C5CCOCC5)c(=O)c4)ncc3[C@@]3(C)COC(C)(C)C[C@@H]23)n1` (single isomer, unassigned) [Example 386]: the 50% inhibitory concentration (IC50) was less than 10 nM in assay [1] (Wee1 kinase domain, ADP-Glo) and 100 to 1000 nM in assay [2] (Homo sapiens, A-427, pCDC2 MSD).
On to `CN1CCN(c2ccc(Nc3ncc4c(n3)N(c3ccn(C(F)F)n3)[C@@H]3CC(C)(C)OC[C@]43C)cc2)CC1` (single isomer, unassigned) [Example 720], for which the concentration for half-maximal inhibition (IC50) in assay [1] (setting [3]) is less than 10 nM; in assay [2] (setting [4]) it was 100 to 1000 nM.
The matching figures for `CN1C[C@@H]2C[C@H]1CN2c1ccc(Nc2ncc3c(n2)N(c2cccc(C(C)(C)O)n2)[C@@H]2CC(C)(C)OC[C@]32C)cc1Cl` (single isomer, unassigned) [Example 435]: less than 10 nM and 100 to 1000 nM.
For `Cc1cc(Nc2ncc3c(n2)N(c2cccc(N=S(C)(C)=O)n2)[C@@H]2CC(C)(C)OC[C@]32C)cnn1` (single isomer, unassigned) [Example 370], the IC50 was less than 10 nM in assay [1] (Wee1 kinase domain, ADP-Glo) and 100 to 1000 nM in assay [2] (Homo sapiens, A-427, pCDC2 MSD).
Turning to `C[C@H]1COC(=O)N1c1cccc(N2c3nc(Nc4ccc(N5C[C@H]6C[C@@H]5CN6)cc4)ncc3[C@@]3(C)COC(C)(C)C[C@@H]23)n1` (single isomer, unassigned) [Example 277], the IC50 was less than 10 nM in assay [1] (Wee1 kinase domain, ADP-Glo) and 100 to 1000 nM in assay [2] (Homo sapiens, A-427, pCDC2 MSD).
Consider `CC1(C)C[C@H]2N(c3cccc(N=S(C)(C)=O)n3)c3nc(Nc4ccc([C@@H]5CCNC5)cc4)ncc3[C@@]2(C)CO1` (single isomer, unassigned) [Example 131], for which the IC50 in assay [1] (Wee1 kinase domain, ADP-Glo) is less than 10 nM; in assay [2] (Homo sapiens, A-427, pCDC2 MSD), less than 100 nM.
`CC1(C)C[C@H]2N(c3cccc(N=S(C)(C)=O)n3)c3nc(Nc4cnn(C(F)F)c4)ncc3[C@@]2(C)CO1` (single isomer, unassigned) [Example 487]: the IC50 was less than 10 nM in assay [1] (setting [3]) and 100 to 1000 nM in assay [2] (setting [4]).
As for `CN1CC(c2ccc(Nc3ncc4c(n3)N(c3cccc(N=S(C)(C)=O)n3)[C@@H]3CC(C)(C)OC[C@]43C)cc2F)C1` (single isomer, unassigned) [Example 184], the IC50 in assay [1] (Wee1 kinase domain, ADP-Glo) is less than 10 nM; in assay [2] (Homo sapiens, A-427, pCDC2 MSD), less than 100 nM.
`CN1CCC(c2ccc(Nc3ncc4c(n3)N(c3cccc(S(C)(=O)=O)n3)[C@@H]3CC(C)(C)OC[C@]43C)cc2)CC1` (single isomer, unassigned) [Example 757]: the IC50 is less than 10 nM in assay [1] (setting [3]) and 100 to 1000 nM in assay [2] (setting [4]).
